As usually defined, the IC50 is the concentration that gives 50% inhibition.

Structures are written as SMILES.

The values that follow come from ChEMBL document CHEMBL3886450, “Tricyclic indole derivatives useful endothelial lipase inhibitors” (2015).

For this experiment, the target named is T1, Endothelial lipase (Homo sapiens, UniProt Q9Y5X9).
T1 sequence (Q9Y5X9 whole entry): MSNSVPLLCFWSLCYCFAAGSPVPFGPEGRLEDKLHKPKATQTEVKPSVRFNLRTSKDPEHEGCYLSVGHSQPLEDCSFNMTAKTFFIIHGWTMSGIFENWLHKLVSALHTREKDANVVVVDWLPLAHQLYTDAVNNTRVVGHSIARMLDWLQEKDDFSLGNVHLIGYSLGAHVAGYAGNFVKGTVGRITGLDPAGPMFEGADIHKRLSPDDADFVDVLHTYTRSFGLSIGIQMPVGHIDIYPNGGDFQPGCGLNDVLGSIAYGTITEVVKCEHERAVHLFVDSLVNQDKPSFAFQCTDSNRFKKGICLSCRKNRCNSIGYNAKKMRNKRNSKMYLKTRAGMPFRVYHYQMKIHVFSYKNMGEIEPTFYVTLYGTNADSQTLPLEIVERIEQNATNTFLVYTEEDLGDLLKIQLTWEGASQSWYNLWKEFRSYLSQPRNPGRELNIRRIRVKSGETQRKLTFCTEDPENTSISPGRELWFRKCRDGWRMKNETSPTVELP
Kind of experiment: Endothelial Lipase Assay: To assay for cell surface lipase activity, cells expressing human endothelial lipase (EL) or LPL were plated in CellBIND® 384-well plates (Corning, Lowell, Mass.) in 25 μL serum free medium at a density of 2000 cells/well. After 18-24 hours incubation at 37° C., the medium was removed and replaced with 15 μL assay buffer [Hank's Buffered Saline Solution with 25 mM HEPES pH 7.2] and 15 μL PLA1 substrate for a final concentration of 10 μM using a Multidrop reagent dispenser. Fluorescence signal was monitored for 30 min at 37° C. on a Safire II plate reader in kinetic mode (60 cycles, kinetic interval: 30 seconds) with an excitation wavelength of 490 nm and an emission wavelength of 515 nm. In kind it is cell-based.

Turning to `CC(CC(=O)N1CCn2c(CCc3ccccc3)c(C(F)(F)F)c3cccc(c32)C1)C(F)(F)F` (configuration not stated), the IC50 was found to be 101 nM.

Compound `NS(=O)(=O)N1CCn2c(CCc3ccccc3)c(C(F)(F)F)c3cccc(c32)C1` displayed an IC50 of 68 nM.
